System: spontaneous hypertensive rats
Assay: Blood pressure and heart rate in conscious spontaneous hypertensive rats after intraperitoneal injection
Type: in vivo
Settings: alone
Description: Adult spontaneous hypertensive rats (6 months of age) were anesthetized by ether inhalation. The femoral artery was dissected and cannulated, and the catheter was connected to a strain-gauge blood pressure transducer. When the animals were fully awake, they were restrained and the systolic and diastolic arterial blood pressure were continuously recorded. An observation period of at least 30 min preceded the administration of the test compound. All test compounds were dissolved in 20% polypropylene glycol and injected intraperitoneally. After administration of the test drug the systolic and diastolic arterial blood pressure and the heart rate were recorded during a period of 120 minutes.

[1] = 1.25 mpk i.p., treated vs untreated animals

NNc1nncc2ccccc12 [Hydralazine, hydralazine]
Δ% change in diastolic blood pressure (DBP), average 120 min (0.63 mpk i.p.): −9.9% | Δ% change in heart rate (HR), average 120 min (0.63 mpk i.p.): −1.45% | Δ% change in systolic blood pressure (SBP), average 120 min (0.63 mpk i.p.): −7.5%

Cc1ccc(N(CC2=NCCN2)c2cccc(O)c2)cc1 [Phentolamine, phentolamine]
Δ% change in diastolic blood pressure (DBP), average 120 min (0.63 mpk i.p.): −13.1% | Δ% change in heart rate (HR), average 120 min (0.63 mpk i.p.): +5.1% | Δ% change in systolic blood pressure (SBP), average 120 min (0.63 mpk i.p.): −9.85%

CC(C)NCC(O)COc1ccc(CC(N)=O)cc1 (stereo not drawn) [Atenolol, atenolol]
Δ% change in diastolic blood pressure (DBP), average 120 min (10 mpk i.p.): +5.9% | Δ% change in heart rate (HR), average 120 min (10 mpk i.p.): −28.1% | Δ% change in systolic blood pressure (SBP), average 120 min (10 mpk i.p.): −3.7%

CC(C)NCC(O)COc1cccc2ccccc12 (stereo not drawn) [Propranolol, propranolol]
Δ% change in diastolic blood pressure (DBP), average 120 min (5 mpk i.p.): +12.4% | Δ% change in heart rate (HR), average 120 min (5 mpk i.p.): −20.7% | Δ% change in systolic blood pressure (SBP), average 120 min (5 mpk i.p.): −2%

O[C@@H](CNC[C@H](O)[C@H]1CCc2cc(F)ccc2O1)[C@@H]1CCc2cc(F)ccc2O1 [compound 1]
Δ% change in diastolic blood pressure (DBP), average 120 min [1]: +2.1% | Δ% change in heart rate (HR), average 120 min [1]: 0.5% | Δ% change in systolic blood pressure (SBP), average 120 min [1]: 0% | Δ% change in diastolic blood pressure (DBP), average 120 min (2.5 mpk i.p.): 0% | Δ% change in heart rate (HR), average 120 min (2.5 mpk i.p.): 0% | Δ% change in systolic blood pressure (SBP), average 120 min (2.5 mpk i.p.): −7%

COCCc1ccc(OCC(O)CNC(C)C)cc1 (stereo not drawn) [Metoprolol, metoprolol]
Δ% change in diastolic blood pressure (DBP), average 120 min (10 mpk i.p.): +12.8% | Δ% change in heart rate (HR), average 120 min (10 mpk i.p.): −16.6% | Δ% change in systolic blood pressure (SBP), average 120 min (10 mpk i.p.): −1.2%

COc1cc2nc(N3CCN(C(=O)c4ccco4)CC3)nc(N)c2cc1OC [Prazosin, prazosin]
Δ% change in diastolic blood pressure (DBP), average 120 min (0.01 mpk i.p.): −11.3% | Δ% change in heart rate (HR), average 120 min (0.01 mpk i.p.): +1.6% | Δ% change in systolic blood pressure (SBP), average 120 min (0.01 mpk i.p.): −10.9%

From patent US6545040B1, “Method of lowering the blood pressure” (Janssen Pharmaceutica N.V., priority 1988, dated 2003)
